Experiments:
human PHD2181-417 = human PHD2181-417 (Homo sapiens (Human), UniProt Q9GZT9); assay: PHD2 enzyme activity assay ([14C]-succinic acid production); format: biochemical; conditions: PHD2181-417 polypeptide, HIF-1α peptide 10 μM, [5-14C]-2-oxoglutaric acid; 30 min pre-incubation; tested 10 μM to 3 nM;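 note: reaction ran 10 min with compound in Tris pH 7.5 buffer with catalase, DTT and ascorbate, labelled succinate freed of leftover 2-oxoglutarate by DNP precipitation, then beta counted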
Hep-3B cells = assay: Cellular assay: EPO secretion in Hep-3B cells; format: cell-based, human; parameters: EPO secretion, % of control compound: dose or concentration left out as unconfirmed; conditions: Homo sapiens, Hep3B, 24 h, EPO secretion as percentage of control compound 7-[(4-Chloro-phenyl)-(5-methyl-isoxazol-3-ylamino)-methyl]-quinolin-8-ol, read-out: Cellular % EPO Stimulation

human PHD2181-417, sequence (Q9GZT9 181-417): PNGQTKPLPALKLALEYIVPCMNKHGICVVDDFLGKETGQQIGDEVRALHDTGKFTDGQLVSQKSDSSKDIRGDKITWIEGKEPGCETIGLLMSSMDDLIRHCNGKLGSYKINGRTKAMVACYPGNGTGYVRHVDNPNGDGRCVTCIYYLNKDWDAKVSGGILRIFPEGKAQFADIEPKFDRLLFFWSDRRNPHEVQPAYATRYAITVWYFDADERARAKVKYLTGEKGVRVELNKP

Row | Structure (SMILES) | Enzyme pIC50 (human PHD2181-417) | EPO secretion, % of control compound (Hep-3B cells)
1 | O=C(O)c1cnn(-c2nc3cc(SCc4ccc(Cl)c(Cl)c4)c(Cl)cc3[nH]2)c1 [Example 167, 1-[6-Chloro-5-(3,4-dichloro-benzylsulfanyl)-1H-benzoimidazol-2-yl]-1H-pyrazole-4-carboxylic Acid] | 6.4 | 25.8%
2 | O=C(O)c1cnn(-c2nc3cc(SCc4c(Cl)cccc4Cl)c(Cl)cc3[nH]2)c1 [Example 168, 1-[6-Chloro-5-(2,6-dichloro-benzylsulfanyl)-1H-benzoimidazol-2-yl]-1H-pyrazole-4-carboxylic Acid] | 7.3 | 50.1%
3 | O=C(O)c1cnn(-c2nc3cc(S(=O)(=O)Cc4ccc(Cl)cc4)c(Cl)cc3[nH]2)c1 [Example 173, 1-[6-Chloro-5-(4-chloro-phenylmethanesulfonyl)-1H-benzoimidazol-2-yl]-1H-pyrazole-4-carboxylic Acid] | 7.8 | 60.4%
4 | O=C(O)c1cnn(-c2nc3cc(S(=O)(=O)Cc4cccc(Cl)c4)c(Cl)cc3[nH]2)c1 [Example 174, 1-[6-Chloro-5-(3-chloro-phenylmethanesulfonyl)-1H-benzoimidazol-2-yl]-1H-pyrazole-4-carboxylic Acid] | 7.6 | 40.9%
5 | O=C(O)c1cnn(-c2nc3cc(S(=O)(=O)CC4CCCCC4)c(Cl)cc3[nH]2)c1 [Example 175, 1-(6-Chloro-5-cyclohexylmethanesulfonyl-1H-benzoimidazol-2-yl)-1H-pyrazole-4-carboxylic Acid] | 7.7 | 48.7%
6 | O=C(O)c1cnn(-c2nc3cc(S(=O)(=O)Cc4ccc(Cl)c(Cl)c4)c(Cl)cc3[nH]2)c1 [Example 176, 1-[6-Chloro-5-(3,4-dichloro-phenylmethanesulfonyl)-1H-benzoimidazol-2-yl]-1H-pyrazole-4-carboxylic Acid] | 7.6 | 44.2%
7 | O=C(O)c1cnn(-c2nc3cc(S(=O)(=O)Cc4c(Cl)cccc4Cl)c(Cl)cc3[nH]2)c1 [Example 177, 1-[6-Chloro-5-(2,6-dichloro-phenylmethanesulfonyl)-1H-benzoimidazol-2-yl]-1H-pyrazole-4-carboxylic Acid] | 7.5 | 66.6%
8 | O=C(O)c1cnn(-c2nc3nc4ccccc4nc3[nH]2)c1 [Example 182, 1-(1H-Imidazo[4,5-b]quinoxalin-2-yl)-1H-pyrazole-4-carboxylic Acid] | 5.5 | 13.4%
9 | O=C(O)c1cnn(-c2nc3nc4cc(Cl)c(Cl)cc4nc3[nH]2)c1 [Example 183, 1-(6,7-Dichloro-1H-imidazo[4,5-b]quinoxalin-2-yl)-1H-pyrazole-4-carboxylic Acid] | 6.4 | 3.3%
10 | O=C(O)c1cnn(-c2nc3nccnc3[nH]2)c1 [Example 184, 1-(1H-Imidazo[4,5-b]pyrazin-2-yl)-1H-pyrazole-4-carboxylic Acid] | 5.9 | 8.3%
11 | O=C(O)c1cnn(-c2nc3c(Cl)ncnc3[nH]2)c1 [Example 185, 1-(6-Chloro-9H-purin-8-yl)-1H-pyrazole-4-carboxylic Acid] | 5.3 | 11.7%
12 | O=C(O)c1cnn(-c2nc3cc(S(=O)(=O)Nc4ccccc4)c(Cl)cc3[nH]2)c1 [Example 186, 1-(6-Chloro-5-phenylsulfamoyl-1H-benzoimidazol-2-yl)-1H-pyrazole-4-carboxylic Acid] | 7.4 | 39.1%
